# In article PMC6411751, “Use of machine learning to identify novel, behaviorally active antagonists of the insect odorant receptor co-receptor (Orco) subunit” (Scientific Reports, 2019):
# Experiments:
# [1] = tested on: Orco subunit of the Hessian fly (Mayetiola destructor); details: cited from earlier work
# OR expressing neurons = tested on: OR expressing neurons; design: method as in PMID 22272331; details: directly injected into sensilla at ≥100 µM; cited from earlier work
# oocyte = test: Oocyte toxicity seen during Orco antagonist screening; details: at concentrations higher than 300 µM
# Excerpt: Figure 4 (A) Scatter plot of predictions (Bayesian scores) from model A and model B for the 138 highest probability predicted actives. […] (B) Cluster membership of the 138 most likely predicted actives and distribution of experimentally tested compounds. […] (D) Antagonist activity of 39 predicted Orco antagonists, as well as the activity of 16 known Orco antagonists (denoted by a dot (•) preceding the compound name). […] Data are presented as mean ± SEM (n = 3–10).
# Agam\Orco = biological target: T1, Agam\Orco (Anopheles gambiae, UniProt Q7QCC7); test: cell-based; format: cell-based
# T1 construct: expressed in transfected cells; host or cells: Xenopus laevis oocytes injected with capped cRNA (plasmid pT7TS, gift of L. Zwiebel)
# T1 sequence (Q7QCC7 1-478): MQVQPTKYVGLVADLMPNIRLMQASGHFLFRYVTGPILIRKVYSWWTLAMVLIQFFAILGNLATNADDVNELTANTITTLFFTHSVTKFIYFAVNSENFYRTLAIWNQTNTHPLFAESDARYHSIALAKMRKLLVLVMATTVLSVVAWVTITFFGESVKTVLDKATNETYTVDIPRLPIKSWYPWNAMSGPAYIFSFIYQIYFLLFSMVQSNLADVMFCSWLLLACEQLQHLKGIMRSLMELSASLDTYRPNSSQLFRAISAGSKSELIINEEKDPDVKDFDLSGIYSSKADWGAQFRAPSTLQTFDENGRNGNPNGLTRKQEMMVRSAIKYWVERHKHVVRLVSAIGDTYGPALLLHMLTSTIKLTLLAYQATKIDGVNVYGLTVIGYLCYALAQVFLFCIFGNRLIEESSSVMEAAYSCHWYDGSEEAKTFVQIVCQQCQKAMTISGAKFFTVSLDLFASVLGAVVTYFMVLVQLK
# Experimental: A 2 hr incubation with collagenase B (Roche) was used to remove follicle cells from oocytes. Capped cRNA for Agam\Orco was synthesized using mMessage mMachine kits (Thermo Fisher Scientific). 25 ng of cRNA was injected into stage V–VI oocytes, followed by a 2–5 day incubation at 18 °C in Barth’s saline (in mM: 88 NaCl, 1 KCl, 2.4 NaHCO3, 0.3 CaNO3, 0.41 CaCl2, 0.82 MgSO4, 15 HEPES, pH 7.4, and 0.05 g/L tetracycline, 0.05 g/L ciprofloxacin, 0.1 g/L amikacin) prior to electrophysiological recordings.
# An automated parallel electrophysiology system (OpusExpress 6000 A, Molecular Devices) was used to record Orco agonist (OLC12) or odorant induced currents under two-electrode voltage clamp. Oocytes were perfused with ND96 (in mM: 96 NaCl, 2 KCl, 1 CaCl2, 1 MgCl2, 5 HEPES, pH 7.4). DMSO was used to prepare 1 M or 100 mM stock solutions of test compounds, which were then diluted in ND96 on the day of the experiment. Compounds were applied at a flow rate of 1.0 mL/min, with extensive washing in ND96 at 4.6 mL/min between applications. Micropipettes with resistances of 0.2–2.0 MΩ were filled with 3 M KCl. The holding potential was −70 mV. Current responses were filtered (4-pole, Bessel, low pass) at 20 Hz (−3 db) and sampled at 100 Hz. OpusXpress 1.1 software (Molecular Devices) was used to capture and store current responses.
# To measure antagonist activity at Orco, Agam\Orco was activated by the Orco agonist OLC12[34]. […] The current response to OLC12 in the presence of antagonist candidate was compared to the mean of the preceding two responses to OLC12 alone and presented as a percentage[34],[35]. This value was then normalized to the value obtained when the assay was run in the absence of antagonist candidate (sham).
# During development of the training panel (Fig. 2, Tables S1 and S2), all compounds not previously known to be Orco antagonists were tested at a concentration of 3 mM. […] Concentration-inhibition curves were constructed for all compounds eliciting >20 percent inhibition at 3 mM. The same concentration and criteria were used during screening of predicted actives (Fig. 4D) and predicted inactives (Fig. 5C).
# Clampfit 9.1 software (Molecular Devices) was used to perform initial analysis of electrophysiological data. Prism 7 (Graphpad) was used for curve fitting. Concentration-inhibition data were fit to the equation: I = Imax/(1 + (X/IC50)^n) where I represents the current response at a given concentration of inhibitor, X; Imax is the maximal response in the absence of inhibitor; IC50 is the concentration of inhibitor present that allows a half maximal response from OLC12; n is the apparent Hill coefficient.
# Dmel\Or85b = tested on: Dmel\Or85b; design: method as in ref 1 Münch, D., Galizia, C.G. DoOR 2.0 (2016); details: ref 1 Münch, D., Galizia, C.G. DoOR 2.0 (2016); cited from earlier work
# Dmel\Or13a = tested on: Dmel\Or13a; design: method as in ref 1 Münch, D., Galizia, C.G. DoOR 2.0 (2016); details: ref 1 Münch, D., Galizia, C.G. DoOR 2.0 (2016); cited from earlier work
# Dmel\Or67a = tested on: Dmel\Or67a; design: method as in ref 1 Münch, D., Galizia, C.G. DoOR 2.0 (2016); details: ref 1 Münch, D., Galizia, C.G. DoOR 2.0 (2016); cited from earlier work
smiles,measurement,setting,value
"CCc1ccc(NC(=O)CSc2nnc(-c3cccnc3)n2CC)cc1 [VUAA1, N-(4-ethylphenyl)-2-((4-ethyl-5-(3-pyridinyl)-4H-1,2,4-triazol-3-yl)thio)acetamide]",sensitivity of Orco subunit to the agonist,[1],insensitive
CCn1c(SCC(=O)N2c3ccccc3Sc3ccccc32)nnc1-c1ccco1 [VU0183254],spontaneous firing rate of OR expressing neurons,OR expressing neurons,reduce the spontaneous firing rate
Cc1ccc(C(C)C)cc1O [carvacrol],oocyte toxicity,oocyte,oocyte toxicity at higher concentrations
same,decrease in potency relative to 3I6MC,Agam\Orco; Agam\Orco IC50 compared with 3I6MC,3.6 fold
same,IC50,"Agam\Orco; Table S1, training actives, Agam\Orco activated by 30 µM OLC12, mean ± SEM (n = 3-8), read-out: IC50",146 ± 21 µM
C=CC(C)(O)CCC=C(C)C (centres unmarked) [linalool],scaled response from DoOR (max = 1.0),Dmel\Or85b,0.163
same,scaled response from DoOR (max = 1.0),Dmel\Or13a,0.164
same,scaled response from DoOR (max = 1.0),Dmel\Or67a,0.158
